Target: T1, cysLT2 receptor (Homo sapiens, UniProt Q9NS75)
T1 construct: expressed in transfected cells; host or cells: HEK293
T1 sequence (Q9NS75 1-346): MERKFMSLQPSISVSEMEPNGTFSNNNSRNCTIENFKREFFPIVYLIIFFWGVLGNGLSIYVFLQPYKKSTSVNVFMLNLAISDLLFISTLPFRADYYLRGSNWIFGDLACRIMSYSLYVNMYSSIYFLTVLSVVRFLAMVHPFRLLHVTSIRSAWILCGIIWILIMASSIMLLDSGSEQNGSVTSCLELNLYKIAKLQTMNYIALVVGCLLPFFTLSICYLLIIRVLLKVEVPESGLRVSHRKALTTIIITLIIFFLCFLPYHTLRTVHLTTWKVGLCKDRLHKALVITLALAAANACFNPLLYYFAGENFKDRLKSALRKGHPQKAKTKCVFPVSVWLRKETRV
Experiment: Effect on LTD4-induced increase of intracellular calcium
Assay type: cell-based
Conditions: HEK293 expression cells of cysLT2 receptor, 100 nM LTD4, compound 180 seconds before stimulation; read-out: IC50 value (50% inhibitory concentration, LTD4-induced intracellular calcium influx)
Description: Expression cells of cysLT2 receptor (HEK293) were seeded in a 96-well plate each containing 1×10^5 cells. The cells were cultured for 24 hours in a 5% CO2 at 37° C. using DMEM (Dulbecco's Modified Eagle Medium). The cells were incubated in 7.5 μM Fura2-AM, 20 mM HEPES (2-[4-(2-hydroxyethyl)-1-piperazinyl]ethanesulfonic acid) and 2.5 mM probenecid for approximately 30 minutes at 37° C. The cells with uptake of Fura2-AM were once washed with assay buffer (Hank's buffer containing 20 mM HEPES) and intracellular calcium influx induced by LTD4 was measured by FDSS2000 (Hamamatsu Photonics K.K.). The compound of the present invention was administered 180 seconds before LTD4 stimulation, and the reaction induced by 100 nM LTD4 was measured in time course for 90 seconds. The effect of the compound of the present invention was evaluated by maximum fluorescence intensity, and 50% inhibitory concentration (IC50) was calculated on each compound.

Row | SMILES | IC50 [nM]
1 | O=C(O)CCCN1CC(C(=O)O)Oc2c(OCc3ccc(OCCCCc4ccccc4)cc3)cccc21 (centres unmarked) [Example 25] | 30
2 | O=C(O)CCC(=O)N1CC(c2nnn[nH]2)Oc2c(NC(=O)c3ccc(OCCCCc4ccccc4)cc3)cccc21 (centres unmarked) [Example 12] | 101

— patent US7763610B2, “Carboxylic acid derived benzoxazines as agents for the treatment of respiratory diseases” (Ono Pharmaceutical Co., Ltd., priority 2003, dated 2010)
